The source of these data is US20240025849A1 (MAX DELBRÜCK-CENTRUM FÜR MOLEKULARE MEDIZIN IN DER …, priority 2020, published 2024).

“Also recorded” adds a separate entry of the source.

Series [1] has as its system nNOS. The series can be described thus: NOS enzyme activity assay (Eurofins), nNOS. It is filed as biochemical. As to conditions: C1: 1 nM and 1 μM; 30 min reaction. As for the experimental part: In mammalians NO is produced by the three isoforms of NOS: iNOS, eNOS, and nNOS. To evaluate the direct influence of cl on the different isoforms of NOS, an enzyme activity assay was conducted by Eurofins. C1 was mixed with the enzyme buffer, which included co-factors and substrates and by adding the enzyme the reaction was initiated. After 30 min the reaction was stopped, and NO concentration was measured. The results are normalised to positive control performed without any additional compounds and are presented as percentage in inhibition. […] To test the compounds effect on iNOS a concentration range from […] 5 μM were applied ([…], 1, 10, 100 nM, 1, and 5 μM), and for testing eNOS and nNOS 1 nM and 1 μM were applied.

The test system of series [2] is oligodendrocyte cell line OLN-93. The series can be described thus: Propidium iodide based proliferation and cell death assay in OLN-93 cells. The following applies: 2.5 μM C1, 48 hours, unstimulated. As for the experimental part:
Cell culture of immortalized cell lines: microglia cell line BV2, and oligodendrocyte cell line OLN-93. The immortalized murine microglia cell line BV2 (Blasi et al., 1990) and the oligodendrocyte cell line OLN-93 (Richter-Landsberg and Heinrich, 1996) were incubated in T75 flasks with plain medium. The cells were split every 2 to 3 days at the dilution 1:10 before they reached confluence. To do so, the cells were washed twice with PBS, followed by up to 5 min of trypsination. The trypsination was stopped using plain medium. The cells were centrifuged at 300 g for 10 min at 4° C., the supernatant was discarded, and the cells were resuspended in new medium and seeded into a new flask.
Propidium iodide based proliferation and cell death assay. To determine the relative proliferation and cell death, the cells were seeded into a […], let adhere for 24 hours and afterwards treated for additional 48 hours. The supernatant was removed, and the cells were washed carefully with 37° C. […] The intensity of the propidium iodide signal of the dead cells was measured using a microplate reader. Afterwards, all cells were killed with a 10 min incubation of 10% DMSO and the propidium iodide signal of all cells was measured. […] The percentage of dead cells was calculated by dividing the dead-cell-signal by the all-cell-signal. Proliferation was calculated as a relative value to the plain medium control.

In series [3] the test system is primary cultured neonatal astrocytes. The series can be described thus: Propidium iodide based proliferation and cell death assay in astrocytes. As to conditions: 2.5 μM C1, 48 hours, unstimulated. As for the experimental part: Primary cultured neonatal astrocytes. The preparation of primary cultured neonatal astrocytes followed the preparation of the primary cultured neonatal microglia, described above. After the third shake off, the remaining astrocytes were trypsinated, washed with PBS and seeded into a 96 well plate (10 000 cells/well, 200 μL medium per well).
Propidium iodide based proliferation and cell death assay. To determine the relative proliferation and cell death, the cells were seeded into a […], let adhere for 24 hours and afterwards treated for additional 48 hours. The supernatant was removed, and the cells were washed carefully with 37° C. HBSS once. 1/200 propidium iodide PBS solution was added and the cells were incubated for 10 minutes. The intensity of the propidium iodide signal of the dead cells was measured using a microplate reader. Afterwards, all cells were killed with a 10 min incubation of 10% DMSO and the propidium iodide signal of all cells was measured. All signals were corrected for the background noise, subtracting the blank signal. The percentage of dead cells was calculated by dividing the dead-cell-signal by the all-cell-signal. Proliferation was calculated as a relative value to the plain medium control.

Series [4] is described as follows: Intravenous tissue distribution study in mice. It is filed as in vivo, mouse.

Regarding `COc1ccc(NC(=O)C(NC(=O)C2CCCN2C(=O)OCc2ccccc2)c2ccc(OC)cc2)cc1` (centres unmarked) [C1], the “enzymatic activity of nNOS” value in series [1] was “does not interfere”. In addition, in series [2], the “OLN-93 cell death rate” value is given as “no significant effect” and the “proliferation of OLN-93 cells” value is reported as “did not show an effect; also recorded: Neither C1 nor DMSO changed the proliferation”. Further, in series [3], the “astrocytes cell death rate” value is on record as “no significant effect” and the proliferation of astrocytes entry is “did not show an effect”. Further, the “passage of the blood brain barrier” value in series [4] (5 mg/kg intravenous) is “passes the blood brain barrier”. The concentration in brain in series [4] (30 minutes after 5 mg/kg intravenous) stood at 1 μM/g tissue. In addition, the concentration in brain in series [4] (4 hours after 5 mg/kg intravenous) was found to be 2.4 nM/g tissue.
